Data published in paper PMC13210772, “Dual FLT3/MAPK14 Proteolysis-Targeting Chimera (PROTAC) Induces Potent Acute Myeloid Leukemia Cell Death” (Pharmaceuticals, 2026).

What was measured:
in vitro = conditions: CD-1, mouse, liver microsomes, pH 7.4
MAPK14 = MAPK14 (Homo sapiens, UniProt Q16539); test: KINOMEscan binding assay; set-up: purchased Eurofins DiscoverX Corporation; host or cells: E. coli BL21-derived (T7 phage) or HEK-293
Method: Kinase-tagged T7 phage strains were prepared in an E. coli host derived from the BL21 strain. E. coli were grown to log-phase and infected with T7 phage and incubated with shaking at 32 °C until lysis. The lysates were centrifuged and filtered to remove cell debris. The remaining kinases were produced in HEK-293 cells and subsequently tagged with DNA for qPCR detection. […] The liganded beads were blocked with excess biotin and washed with blocking buffer (SeaBlock (Pierce), 1% BSA, 0.05% Tween 20, 1 mM DTT) to remove unbound ligand and to reduce non-specific binding. […] The compounds were then diluted directly into the assays such that the final concentration of DMSO was 0.9%. All reactions performed in polypropylene 384-well plate. Each was a final volume of 0.02 mL. […] The kinase concentration in the eluates was measured by qPCR.

Plasma stability = format: in vitro ADME; conditions: for remaining at 0 h, 10 µM / remaining at 10 min, 10 µM / remaining at 0.5 h, 10 µM / remaining at 1 h, 10 µM / remaining at 2 h, 10 µM / remaining at 6 h, 10 µM: pooled human plasma, 37 °C; for remaining at 0 h, 10 µM: 0 min, read-out: 0 min—Compound Remaining %; for remaining at 10 min, 10 µM: read-out: 10 min—Compound Remaining %; for remaining at 0.5 h, 10 µM: 30 min, read-out: 30 min—Compound Remaining %; for remaining at 1 h, 10 µM: 60 min, read-out: 60 min—Compound Remaining %; for remaining at 2 h, 10 µM: 120 min, read-out: 120 min—Compound Remaining %; for remaining at 6 h, 10 µM: 360 min, read-out: 360 min—Compound Remaining %; for plasma stability: human plasma, 6 h
Method: Another aspect we tested for selected PROTACs, and the reference inhibitor is the stability in human plasma. PROTACs MA190 and MA191 and their parent inhibitor MA68 (10 μM, final DMSO concentration 1%) were incubated with 100 μL pooled human plasma at 37 °C. The remaining amount of the incubated compound was tested for 6 h using a HPLC method. […] The further detailed biological characterization of MA191 and the successful in vivo testing can be found in a study submitted in parallel.
To determine plasma stability, 10 μM of the given compound was incubated with 100 μL human pooled plasma for 5, 10, 30, 60, 120 and 360 min at 37 °C. The reactions were stopped by adding 300 μL of acetonitrile with subsequent plasma proteins sedimentation. The samples were subjected to ultra-centrifugation (5 min, 10,000 RPM/g) using modified PES 30K low protein binding centrifugal filter. The filtrate was then analyzed using HPLC to determine the available concentration of the compounds and also to determine and quantify potential degradation products. As HPLC system a LiChrosorb® RP-18 (5 μm) 100–4.6 column from the manufacturer Merck, two LC-10AD pumps, a SPD-M10A VP PDA detector, and a SIL HT auto-sampler were used (all from the manufacturer Shimadzu, Kyoto, Japan). As mobile phase a gradient with […] composed of methanol/water/trifluoroacetic acid at a flow rate of 1 mL/min. UV absorbance was measured at 254 nm was used.

[1] = Non-enzymatic stability under cellular assay conditions (HPLC); format: physicochemical; conditions: compound remaining, assay medium DMEM, 37 °C
Method: An important aspect in the development of PROTACs is testing chemical stability. On the one hand, we tested all PROTACs produced for their stability under cellular assay conditions. For this purpose, 10 µM solutions of the PROTACs and reference inhibitor were incubated for 72 h at 37 °C with the assay medium DMEM. The remaining amount of the compounds was determined by HPLC after 6, 12, 24, 48 and 72 h. The results of the stability studies are shown in Table S2 (Supplementary Information).
The developed compounds were diluted in the assay media consisting of a mixture of DMEM (50%), DMSO (10%) and acetonitrile (40%) at pH 7.4 and incubated at 37 °C for 72 h. The quantity of the compounds was measured after 6, 12, 24, 48, and 72 h by HPLC using an XTerra RP18 column ([…], 3.9 mm × 100 mm) from the manufacturer Waters (Milford, MA, USA) and two LC-10AD pumps, an SPD-M10AVP PDA detector, and an SIL-HT autosampler, all from the manufacturer Shimadzu (Kyoto, Japan).

FLT3-ITD = biological target: T1, FLT3-ITD (Homo sapiens, UniProt P36888, INS600HVDFREYEYD); test: FLT3-ITD degradation, immunoblot in MV4-11 cells; conditions: for inhibition at 0.05 µM: MV4-11, 24 h, read-out: % FLT3-ITD Degradation at 50 nM; for reduction/elimination of FLT3-ITD / FLT3-ITD degradation / FLT3-ITD (130 kDa) level relative to untreated cells: MV4-11 cells; for FLT3-ITD degradation / FLT3-ITD (130 kDa) level relative to untreated cells: 50 nM; for FLT3-ITD degradation: 24 h
T1 sequence (P36888 with tags, fused parts or gaps INS600HVDFREYEYD): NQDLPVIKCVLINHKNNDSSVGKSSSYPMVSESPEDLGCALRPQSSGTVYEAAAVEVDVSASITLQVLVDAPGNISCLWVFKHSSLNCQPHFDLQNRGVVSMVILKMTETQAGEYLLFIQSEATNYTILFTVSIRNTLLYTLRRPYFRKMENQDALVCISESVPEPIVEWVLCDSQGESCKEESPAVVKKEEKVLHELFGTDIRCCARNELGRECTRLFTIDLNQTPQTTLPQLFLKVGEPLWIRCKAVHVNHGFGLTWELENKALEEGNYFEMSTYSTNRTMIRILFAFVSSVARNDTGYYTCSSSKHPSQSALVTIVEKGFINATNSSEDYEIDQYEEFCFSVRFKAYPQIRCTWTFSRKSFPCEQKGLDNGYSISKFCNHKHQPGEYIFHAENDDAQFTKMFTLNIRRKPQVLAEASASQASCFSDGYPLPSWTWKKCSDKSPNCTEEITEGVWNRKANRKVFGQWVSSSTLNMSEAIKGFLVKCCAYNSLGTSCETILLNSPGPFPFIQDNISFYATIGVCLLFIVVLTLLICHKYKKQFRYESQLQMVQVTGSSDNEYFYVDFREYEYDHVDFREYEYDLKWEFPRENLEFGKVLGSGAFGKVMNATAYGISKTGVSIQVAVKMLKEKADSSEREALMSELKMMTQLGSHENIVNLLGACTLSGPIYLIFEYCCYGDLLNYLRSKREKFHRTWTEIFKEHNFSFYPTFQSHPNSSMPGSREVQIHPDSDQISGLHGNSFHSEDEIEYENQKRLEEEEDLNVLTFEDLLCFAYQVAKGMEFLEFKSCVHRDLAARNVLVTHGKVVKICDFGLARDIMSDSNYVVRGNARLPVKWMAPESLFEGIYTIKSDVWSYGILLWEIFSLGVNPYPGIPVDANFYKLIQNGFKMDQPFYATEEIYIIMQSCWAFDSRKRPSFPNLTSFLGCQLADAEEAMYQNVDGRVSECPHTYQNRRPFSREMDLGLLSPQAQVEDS

Sequence of MAPK14 (Q16539 whole entry): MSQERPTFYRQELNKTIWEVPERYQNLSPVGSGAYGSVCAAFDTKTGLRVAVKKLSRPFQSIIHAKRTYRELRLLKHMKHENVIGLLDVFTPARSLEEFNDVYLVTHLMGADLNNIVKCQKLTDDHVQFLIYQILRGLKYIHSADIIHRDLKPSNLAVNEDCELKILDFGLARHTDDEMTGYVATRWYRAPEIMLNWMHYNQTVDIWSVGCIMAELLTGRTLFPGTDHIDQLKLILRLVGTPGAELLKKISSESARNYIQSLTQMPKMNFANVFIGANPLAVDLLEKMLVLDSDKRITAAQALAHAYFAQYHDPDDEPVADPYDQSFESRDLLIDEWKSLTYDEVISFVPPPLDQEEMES

Structure (SMILES) | remaining at 0 h, 25 µM (in vitro) [%] | remaining at 10 min, 25 µM (in vitro) [%] | remaining at 20 min, 25 µM (in vitro) [%] | remaining at 0.5 h, 25 µM (in vitro) [%] | remaining at 1 h, 25 µM (in vitro) [%] | remaining at 2 h, 25 µM (in vitro) [%] | % MAPK- 14 Binding at 1 µM (MAPK14) [%] | remaining at 0 h, 10 µM (Plasma stability) [%] | remaining at 10 min, 10 µM (Plasma stability) [%] | remaining at 0.5 h, 10 µM (Plasma stability) [%] | remaining at 1 h, 10 µM (Plasma stability) [%] | remaining at 2 h, 10 µM (Plasma stability) [%] | remaining at 6 h, 10 µM (Plasma stability) [%] | 0 h - % [1] [%] | 6 h- % [1] [%] | 12 h- % [1] [%] | 24 h- % [1] [%] | 48 h- % [1] [%] | 72 h- % [1] [%] | inhibition at 0.05 µM (FLT3-ITD) [%] | further results
Cc1ncsc1-c1ccc([C@H](C)NC(=O)[C@@H]2C[C@@H](O)CN2C(=O)[C@@H](NC(=O)CCOCCOCCOCCNC(=O)c2cc(Oc3ccc(NC(=O)Nc4cc(C(C)(C)C)on4)cc3)ccn2)C(C)(C)C)cc1 [MA49, reference compound] | 100 | 66 | 53 | 37 | 29 | 15 | 81 ± 0 | 100 | 94.9 ± 2.5 | 96.1 ± 1.7 | 95.2 ± 2.8 | 93.2 ± 6.7 | 95.4 ± 4.3 | 100 | 101.1 | 101.4 | 103.5 | 104.2 | 104.9 | 80 | reduction/elimination of FLT3-ITD (FLT3-ITD): 80%
CNC(=O)c1cc(Oc2ccc(NC(=O)Nc3cc(C(C)(C)C)on3)cc2)ccn1 [MA68, reference compound] |  |  |  |  |  |  |  | 100 | 92.9 ± 0.2 | 94.2 ± 1.2 | 91.9 ± 3.1 | 93.6 ± 3.2 | 88.9 ± 3.2 | 100 | 101.0 | 102.4 | 102.1 | 105.7 | 105.2 |  | plasma stability (Plasma stability): high plasma stability; FLT3-ITD degradation (FLT3-ITD): but not their underlying kinase inhibitor MA68, eliminate FLT3-ITD
Cc1ncsc1-c1ccc([C@H](C)NC(=O)[C@@H]2C[C@@H](O)CN2C(=O)[C@@H](NC(=O)[C@H]2CC[C@H](C(=O)N3CCC(CCNC(=O)c4cc(Oc5ccc(NC(=O)Nc6cc(C(C)(C)C)on6)cc5)ccn4)CC3)CC2)C(C)(C)C)cc1 [MA190, 4-(4-(3-(5-(tert-Butyl)isoxazol-3-yl)ureido)phenoxy)-N-(2-(1-(trans-4-(((S)-1-((2S,4R)-4-hydroxy-2-(((S)-1-(4-(4-methylthiazol-5-yl)phenyl)ethyl)carbamoyl)pyrrolidin-1-yl)-3,3-dimethyl-1-oxobutan-2-yl)carbamoyl)cyclohexanecarbonyl)piperidin-4-yl)ethyl)picolinamide] | 100 | 92 | 90 | 95 | 96 | 91 | 90 ± 2 | 100 | 94.1 ± 4.7 | 89.5 ± 1.8 | 88.3 ± 0.2 | 86 ± 2 | 86.2 ± 2.4 | 100 | 102.6 | 103.2 | 104.4 | 105.4 | 107.4 | 95 | plasma stability (Plasma stability): high plasma stability; reduction/elimination of FLT3-ITD (FLT3-ITD): > 95%; FLT3-ITD (130 kDa) level relative to untreated cells (FLT3-ITD): 5%; FLT3-ITD degradation (FLT3-ITD): eliminate FLT3-ITD
Cc1ncsc1-c1ccc([C@H](C)NC(=O)[C@@H]2C[C@@H](O)CN2C(=O)[C@@H](NC(=O)[C@H]2CC[C@H](C(=O)N3CCN(CCNC(=O)c4cc(Oc5ccc(NC(=O)Nc6cc(C(C)(C)C)on6)cc5)ccn4)CC3)CC2)C(C)(C)C)cc1 [MA191, 4-(4-(3-(5-(tert-Butyl)isoxazol-3-yl)ureido)phenoxy)-N-(2-(4-(trans-4-(((S)-1-((2S,4R)-4-hydroxy-2-(((S)-1-(4-(4-methylthiazol-5-yl)phenyl)ethyl)carbamoyl)pyrrolidin-1-yl)-3,3-dimethyl-1-oxobutan-2-yl)carbamoyl)cyclohexanecarbonyl)piperazin-1-yl)ethyl)picolinamide] | 100 | 99 | 96 | 94 | 93 | 91 | 89 ± 2 | 100 | 95.9 ± 9.4 | 93.3 ± 4.2 | 92.6 ± 5.7 | 94.9 ± 1.8 | 93.3 ± 0.7 | 100 | 100.3 | 100.0 | 99.7 | 100.3 | 100.3 | 95 | plasma stability (Plasma stability): high plasma stability; reduction/elimination of FLT3-ITD (FLT3-ITD): > 95%; FLT3-ITD (130 kDa) level relative to untreated cells (FLT3-ITD): 5%; FLT3-ITD degradation (FLT3-ITD): eliminate FLT3-ITD
